Experimental data from patent publication US20260216149A1, “USE OF DIAZAPHENANTHRENE PROTONATED DIMER” (XI’AN LIZE TECHNOLOGY PROJECT INVESTMENT CO., LTD., priority 2023, published 2026).
pIC50: −log10 of the molar value.

How the values were obtained:
[1] = test system: Human neuroglioma U521MG cell Line; assay: IC50 determination (CCK-8); assay type: cell-based; details: DMEM HG, treated 8 h
Protocol: (§1) The cells were washed with PBS (pH 7.4), added with a CCK-8 solution (Beijing Beyotime Biotechnology) to each well according to the instructions, and then incubated for 4 h.

[2] = test system: Human lung adenocarcinoma A549 cell line; assay: IC50 determination (CCK-8); assay type: cell-based; details: A549, DMEM HG, treated 8 h
Protocol: as §1

[3] = test system: Human neuroblastoma SH-SY5Y cell line; assay: IC50 determination (CCK-8); assay type: cell-based; details: DMEM/F12, treated 8 h
Protocol: as §1

[4] = test system: Mouse melanoma B16 cell line; assay: IC50 determination (CCK-8); assay type: cell-based; details: B16, RPMI 1640, treated 8 h
Protocol: as §1

[5] = test system: Mouse liver cancer H22 cell line; assay: IC50 determination (CCK-8); assay type: cell-based; details: H22, RPMI 1640, treated 8 h
Protocol: as §1

B. cereus = assay: Tests for MIC and MBC; assay type: cell-based, Bacillus cereus; details: unit assumed
Cryptococcus neoformans = assay: Test for Cryptococcus-infected mice; assay type: in vivo; details: Example 1 2, 4, 8 mg/kg iv, fluconazole 8 mg/kg ip

| Compound | pIC50 [1] | pIC50 [2] | pIC50 [3] | pIC50 [4] | pIC50 [5] | MIC (B. cereus; 12 h culture, absorbance 600 nm) | MBC (B. cereus; subculture further 12 h) | pathological symptoms of brains and lungs (cerebral edema, pneumonia) (Cryptococcus neoformans) | Cryptococcus-infected symptoms and weight (Cryptococcus neoformans; once a day for 9 days) |
| --- | --- | --- | --- | --- | --- | --- | --- | --- | --- |
| F[P-](F)(F)(F)(F)F.O=[N+]([O-])c1cc2ccc[nH+]c2c2ncccc12.O=[N+]([O-])c1cc2cccnc2c2ncccc12 [Example 7] | 3.49 | 3.49 | 4.49 | 3.49 | 3.49 | 0.5 µg/mL | 4 µg/mL | – | – |
| OC(Cn1cncn1)(Cn1cncn1)c1ccc(F)cc1F [fluconazole] | – | – | – | – | – | – | – | pathological symptoms were improved | the symptoms were improved, and the weight gained |
